How the values were obtained:
human alpha 7-wt nAChR = biological target: T1, human alpha 7-wt nAChR (Homo sapiens, UniProt P36544); experiment: Ca2+ flux imaging (FDSS) (Protocol B); assay type: cell-based; settings: for Emax: efficacy of 100 μM choline defined as 100% in the absence of a PAM, read-out: a7-PAM-G_[33]_Eff_Curve_FI % Efficacy; for EC50: potentiation of 100 μM choline, compounds 0.01 μM to 30 μM, read-out: a7-PAM-G_[33]_pEC50 pEC50 (converted)
T1 construct: expressed in transfected cells
How it was run: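 Fluo-4AM-loaded cells expressing human α7-wt nAChR, in HBSS with 10 mM HEPES, 5 mM CaCl2, 0.1% BSA, received compound (0.01–30 μM), typically 10 min before 100 μM choline, with calcium flux read in real time. Potentiation is relative to choline alone (100%); EC50 from sigmoidal curves.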

[1] = biological target: T2, human alpha 7-wt nAChR-expressing GH4C1 cells (Homo sapiens, UniProt P36544); experiment: Patch-clamp current recording (whole-cell voltage-clamp, PAM type classification); assay type: cell-based; parameters: key: Type 0 compounds minimally change the effect size of the current elicited by 1 mM choline.; Type 1 compounds enhance the effect size of the current elicited by 1 mM choline but minimally alter the kinetics of the receptor.; Type 2 compounds enhance the effect size of the current elicited by 1 mM choline while reducing the rate and/or the extent of desensitization.; Type 3 compounds enhance the effect size of the current elicited by 1 mM choline. When tested at higher concentrations up to 10 μM they completely inhibit desensitization; Type 4 compounds allow for an initial desensitization of the receptor followed by a re-opening of the receptor during agonist application; settings: 1 mM choline
T2 construct: expressed in transfected cells
Procedure: The compounds of the present invention are classified as type 1-4, based on qualitative kinetic properties, as determined by whole-cell voltage-clamp recordings. This classification is based on the effect of an alpha 7 PAM compound, as described hereinbefore, on the signal elicited by an agonist application. In particular, said agonist is choline at a concentration of 1 mM. In a preferred experimental setting, said alpha 7 PAM compound and choline are simultaneously applied to the cell, as described hereinafter. Desensitization is defined as the closure of the receptor upon activation during the application of the agonist in whole-cell voltage-clamp electrophysiology measurements seen as the reduction of the […] current after initial activation by the agonist.
The definition of the PAM types 1-4 is described hereinafter: • Type 0 compounds minimally change the effect size of the current elicited by 1 mM choline. • Type 1 compounds enhance the effect size of the current elicited by 1 mM choline but minimally alter the kinetics of the receptor. In particular, the rate and the extent of desensitization and of deactivation of the receptor elicited by the agonist is not affected. The compound-modulated response to 1 mM choline, therefore, is close to a linear scaling of the 1 mM choline response in absence of the alpha 7 PAM compound. • Type 2 compounds enhance the effect size of the current elicited by 1 mM choline while reducing the rate and/or the extent of desensitization. Deactivation of the receptor is generally unaffected. • Type 3 compounds enhance the effect size of the current elicited by 1 mM choline. […] Deactivation of the receptor may be slowed down • Type 4 compounds allow for an initial desensitization of the receptor followed by a re-opening of the receptor during agonist application. At low-potency concentrations of the alpha 7 PAM compound, the agonist-induced activation, which is followed by desensitization, can still be separated from the compound-induced re-opening as an initial inward current-maximum. At higher potency concentrations of the alpha 7 PAM compound, the re-opening occurs faster than the closure due to desensitization so that the initial current-maximum disappears.
A compound was considered to have interesting PAM-like activity when the potentiation of the peak current was at least 200% compared to the control choline response (=100%). Such compounds are classified as belonging to a particular PAM type in the Experimental Part. Compounds not meeting the condition are not classified as belonging to a particular PAM-type.
The compounds also have a potentiating effect on the response to choline when measured by whole-cell patch clamp electrophysiology in GH4C1 cells stably over-expressing the human wild-type alpha 7 receptor.
Patch-clamp recording from mammalian cells has provided a powerful means of assessing the function of membrane-bound proteins thought to be subunits of ligand-gated ion channels. Activation of such proteins by endogenous or exogenous ligands cause opening of a pore associated with the receptor through which ions flow down their electrochemical gradient. In the case of the human alpha 7-wt nAChR-expressing GH4C1 recombinant cell line the preferential permeability to calcium of this receptor means that calcium flows into the cell upon activation by ACh, choline and other nicotinic ligands giving rise to a calcium current. Since this receptor rapidly desensitizes in the presence of agonist it is important that an application system is used which is capable of very rapid switching of solutions (<100 ms) to prevent partial or full desensitisation of receptor responses coincident with the time of agonist application. Consequently, a second convenient technique to assess the enhancement of nicotinic efficacy is a patch-clamp recording from human alpha 7-wt nAChR-expressing GH4C1 cells coupled with a rapid-application system. […]

T2 sequence (P36544 23-502): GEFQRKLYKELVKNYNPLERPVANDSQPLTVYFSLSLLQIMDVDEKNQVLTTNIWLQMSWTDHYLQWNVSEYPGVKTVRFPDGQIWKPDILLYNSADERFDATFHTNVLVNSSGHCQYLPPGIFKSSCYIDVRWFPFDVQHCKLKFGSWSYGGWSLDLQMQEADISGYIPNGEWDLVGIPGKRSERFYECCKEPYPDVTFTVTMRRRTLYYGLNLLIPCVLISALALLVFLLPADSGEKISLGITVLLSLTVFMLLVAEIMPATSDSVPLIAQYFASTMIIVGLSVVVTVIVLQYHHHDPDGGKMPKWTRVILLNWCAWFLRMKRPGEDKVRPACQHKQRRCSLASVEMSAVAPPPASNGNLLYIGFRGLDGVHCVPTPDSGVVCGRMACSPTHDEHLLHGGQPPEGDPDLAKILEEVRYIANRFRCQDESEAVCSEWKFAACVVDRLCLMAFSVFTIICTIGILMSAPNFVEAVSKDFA
T1 sequence (P36544 23-502): as above

Emax (human alpha 7-wt nAChR) [%] | EC50 (human alpha 7-wt nAChR) [nM] | SMILES | PAM_Type PAM type [1]
791 | 871 | Cc1cc(-c2sc(N3C[C@@H](C)O[C@@H](C)C3)nc2CNC(=O)C2CC(=O)OC2(C)C)cc(C)n1 (stereo partly drawn) [Compound 154, N-[[2-[(2R,6S)-2,6-dimethyl-4-morpholinyl]-5-(2,6-dimethyl-4-pyridinyl)-4-thiazolyl]methyl]tetrahydro-2,2-dimethyl-5-oxo-3-furancarboxamide] | 1
– | 525 | Cc1cc(-c2sc(N3C[C@@H](C)O[C@@H](C)C3)nc2CNC(=O)Cc2c(C)noc2C)cc(C)n1 [Compound 166, N-[[2-[(2R,6S)-2,6-dimethyl-4-morpholinyl]-5-(2,6-dimethyl-4-pyridinyl)-4-thiazolyl]methyl]-3,5-dimethyl-4-isoxazoleacetamide] | 1
924 | 69.2 | Cc1cc(-c2sc(N3C[C@@H](C)O[C@@H](C)C3)nc2CNC(=O)CC(F)(F)F)cc(C)n1 [Compound 168, N-[[2-[(2R,6S)-2,6-dimethyl-4-morpholinyl]-5-(2,6-dimethyl-4-pyridinyl)-4-thiazolyl]methyl]-3,3,3-trifluoro-propanamide] | 1
– | 525 | Cc1cc(-c2sc(N3C[C@@H](C)O[C@@H](C)C3)nc2CNC(=O)COCC(F)(F)F)cc(C)n1 [Compound 175, N-[[2-[(2R,6S)-2,6-dimethyl-4-morpholinyl]-5-(2,6-dimethyl-4-pyridinyl)-4-thiazolyl]methyl]-2-(2,2,2-trifluoroethoxy)-acetamide] | 1
707 | 97.7 | Cc1cc(-c2sc(N3C[C@@H](C)O[C@@H](C)C3)nc2CNC(=O)C(C)C2CC2)cc(C)n1 (stereo partly drawn) [Compound 179, N-[[2-[(2R,6S)-2,6-dimethyl-4-morpholinyl]-5-(2,6-dimethyl-4-pyridinyl)-4-thiazolyl]methyl]-α-methyl-cyclopropaneacetamide] | 2
– | 20.9 | Cc1cc(-c2sc(N3CCOC(C(F)(F)F)C3)nc2CNC(=O)c2ccc(F)cc2C)cc(C)n1 (centres unmarked) [Compound 193, N-[[5-(2,6-dimethyl-4-pyridinyl)-2-[2-(trifluoromethyl)-4-morpholinyl]-4-thiazolyl]methyl]-4-fluoro-2-methyl-benzamide] | 4
– | 148 | Cc1cc(F)ccc1C(=O)NCc1nc(N2C[C@@H](C)O[C@@H](C)C2)sc1-c1ccnc(C(F)(F)F)c1 [Compound 198, N-[[2-[(2R,6S)-2,6-dimethyl-4-morpholinyl]-5-[2-(trifluoromethyl)-4-pyridinyl]-4-thiazolyl]methyl]-4-fluoro-2-methyl-benzamide] | 1

The next lines start with the compound.

SMILES | Emax (human alpha 7-wt nAChR) [%] | EC50 (human alpha 7-wt nAChR) [nM] | PAM_Type PAM type [1]
Cc1cc(-c2sc(N3C[C@@H](C)O[C@@H](C)C3)nc2CNC(=O)c2ccc(C(F)(F)F)cc2)cc(C)n1 [Compound 23, N-[[2-[(2R,6S)-2,6-dimethyl-4-morpholinyl]-5-(2,6-dimethyl-4-pyridinyl)-4-thiazolyl]methyl]-4-(trifluoromethyl)-benzamide] | 594 | 229 | 2
Cc1cc(-c2sc(N3C[C@@H](C)O[C@@H](C)C3)nc2CNC(=O)c2ccc(F)cc2C)cc(C)n1 [Compound 24, N-[[2-[(2R,6S)-2,6-dimethyl-4-morpholinyl]-5-(2,6-dimethyl-4-pyridinyl)-4-thiazolyl]methyl]-4-fluoro-2-methyl-benzamide] | 526 | 17.4 | 2
Cc1cc(-c2sc(N3C[C@@H](C)O[C@@H](C)C3)nc2CNC(=O)c2c(C)noc2C)cc(C)n1 [Compound 25, N-[[2-[(2R,6S)-2,6-dimethyl-4-morpholinyl]-5-(2,6-dimethyl-4-pyridinyl)-4-thiazolyl]methyl]-3,5-dimethyl-4-isoxazolecarboxamide] | 235 | 813 | 0
Cc1cc(-c2sc(N3C[C@@H](C)O[C@@H](C)C3)nc2CNC(=O)c2cccc(F)c2F)cc(C)n1 [Compound 32, N-[[2-[(2R,6S)-2,6-dimethyl-4-morpholinyl]-5-(2,6-dimethyl-4-pyridinyl)-4-thiazolyl]methyl]-2,3-difluoro-benzamide] | 422 | 380 | 1
Cc1cc(-c2sc(N3C[C@@H](C)O[C@@H](C)C3)nc2CNC(=O)C(C)C)cc(C)n1 [Compound 40, N-[[2-[(2R,6S)-2,6-dimethyl-4-morpholinyl]-5-(2,6-dimethyl-4-pyridinyl)-4-thiazolyl]methyl]-2-methyl-propanamide] | 965 | 100 | 2
Cc1cc(-c2sc(N3C[C@@H](C)O[C@@H](C)C3)nc2CNC(=O)C2CC2)cc(C)n1 [Compound 48, N-[[2-[(2R,6S)-2,6-dimethyl-4-morpholinyl]-5-(2,6-dimethyl-4-pyridinyl)-4-thiazolyl]methyl]-cyclopropanecarboxamide] | – | 661 | 2
COc1cc(-c2sc(N3C[C@@H](C)O[C@@H](C)C3)nc2CNC(=O)c2conc2C)cc(C)n1 [Compound 81, N-[[2-[(2R,6S)-2,6-dimethyl-4-morpholinyl]-5-(2-methoxy-6-methyl-4-pyridinyl)-4-thiazolyl]methyl]-3-methyl-4-isoxazolecarboxamide] | 384 | 295 | 2
Cc1cc(-c2sc(N3C[C@@H](C)O[C@@H](C)C3)nc2CNC(=O)C2CCC2)ccn1 [Compound 89, N-[[2-[(2R,6S)-2,6-dimethyl-4-morpholinyl]-5-(2-methyl-4-pyridinyl)-4-thiazolyl]methyl]-cyclobutanecarboxamide] | 528 | 631 | 2
Cc1cc(-c2sc(N3C[C@@H](C)O[C@@H](C)C3)nc2CNC(=O)c2nc(C)oc2C)cc(C)n1 [Compound 134, N-[[2-[(2R,6S)-2,6-dimethyl-4-morpholinyl]-5-(2,6-dimethyl-4-pyridinyl)-4-thiazolyl]methyl]-2,5-dimethyl-4-oxazolecarboxamide] | 464 | 2400 | 0
Cc1cc(-c2sc(N3C[C@@H](C)O[C@@H](C)C3)nc2CNC(=O)c2ccc(S(N)(=O)=O)cc2)cc(C)n1 [Compound 144, 4-(aminosulfonyl)-N-[[2-[(2R,6S)-2,6-dimethyl-4-morpholinyl]-5-(2,6-dimethyl-4-pyridinyl)-4-thiazolyl]methyl]-benzamide] | – | 2140 | 2
Cc1cc(-c2sc(N3C[C@@H](C)O[C@@H](C)C3)nc2CNC(=O)c2oncc2C)cc(C)n1 [Compound 148, N-[[2-[(2R,6S)-2,6-dimethyl-4-morpholinyl]-5-(2,6-dimethyl-4-pyridinyl)-4-thiazolyl]methyl]-4-methyl-5-isoxazolecarboxamide] | – | 1230 | 0

Source: patent US8637510B2, “Morpholinothiazoles as alpha 7 positive allosteric modulators” (Janssen Pharmaceutica NV, priority 2009, dated 2014)
